Measurements: patent publication US8067424B2, “Selective inhibitors for cyclin-dependent kinases” (Emory University, priority 2007, dated 2011)
Read-outs that look alike come from different tables or passages of the source.

What was measured:
Type in all cases: biochemical
PRK2 = PRK2 (Homo sapiens, UniProt Q16513); test: Kinase screen: PRK2 assay
Procedure: (§1) Generally, the same procedure was used for all assays. Since the total assay volume was 25.5 microliters, 0.5 microliters of inhibitors at 51× assay concentration were added to the plates before any other addition.
(§2) The basic procedure was to add 0.5 microliters inhibitor/control in DMSO to plate. Fifteen microliters of enzyme/substrate/buffer mix were added and incubated for 5 min. Ten microliters MgATP at the relevant concentration were added and incubated for 30 min. The assay was stopped by adding 5 microliters of 3% orthophosphoric acid. The assay was transferred to a p81 filter plate and read in a scintillation counter of 30 sec/well. Note that this assay procedure was not followed for MKK1, which instead involved a two-step assay, and PKC alpha, which required the addition of lipid vesicles.
PRK2 assay: 5-20 mU of PRK2 (diluted in 50 mM Tris (pH 7.5), 0.1 mM EGTA, 1 mg/ml BSA, 0.1%, b-Mercaptoethanol) was assayed against Long S6 peptide ([…]) (SEQ ID NO: 10) in a final volume of 25.5 μl containing 50 mM Tris (pH 7.5), 0.1 mM EGTA, 0.1%, b-Mercaptoethanol, 30 μM Long S6 peptide, 10 mM magnesium acetate and 0.005 mM [33P-g-ATP] (500-1000 cpm/pmole) and incubated for 30 mins at room temperature. Assays were stopped by addition of 5 μl of 0.5M (3%) orthophosphoric acid. Assays were harvested onto P81 Unifilter plates using a wash buffer of 50 mM orthophosphoric acid.

MNK2 = MNK2 (Homo sapiens, UniProt Q9HBH9); test: Kinase screen: MNK2 alpha assay
Procedure: as §1, §2
MNK2 alpha assay: 5-20 mU of MNK2 (diluted in 50 mM Tris (pH 7.5), 0.1 mM EGTA, 1 mg/ml BSA, 0.1%, b-Mercaptoethanol) was assayed against substrate peptide (eIF4E) in a final volume of 25.5 μl containing 50 mM Tris (pH 7.5), 0.1 mM EGTA, 0.1%, b-Mercaptoethanol, 0.5 mg/ml substrate peptide, 10 mM magnesium acetate and 0.05 mM [33P-g-ATP](500-1000 cpm/pmole) and incubated for 30 mins at room temperature. Assays were stopped by addition of 5 μl of 0.5M (3%) orthophosphoric acid. Assays were harvested onto P81 Unifilter plates using a wash buffer of 50 mM orthophosphoric acid.

MST2 = molecular target: T1, MST2 (Homo sapiens, UniProt Q13188); test: Kinase screen: MST2 assay
T1 sequence (Q13188 1-491): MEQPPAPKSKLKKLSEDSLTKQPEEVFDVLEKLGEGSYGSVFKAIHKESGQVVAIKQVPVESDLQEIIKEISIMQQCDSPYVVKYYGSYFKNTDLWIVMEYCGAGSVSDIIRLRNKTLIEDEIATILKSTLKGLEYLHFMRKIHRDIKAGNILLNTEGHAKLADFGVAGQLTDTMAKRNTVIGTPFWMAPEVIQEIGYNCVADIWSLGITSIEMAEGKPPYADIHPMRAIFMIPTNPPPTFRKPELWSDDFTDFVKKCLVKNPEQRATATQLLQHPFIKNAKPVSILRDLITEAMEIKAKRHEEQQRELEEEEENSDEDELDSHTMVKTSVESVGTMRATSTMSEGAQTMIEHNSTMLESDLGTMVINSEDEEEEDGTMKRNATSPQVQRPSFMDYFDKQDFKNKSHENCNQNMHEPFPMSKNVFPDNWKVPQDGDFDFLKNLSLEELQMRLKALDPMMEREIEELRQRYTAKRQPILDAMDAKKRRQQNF
Procedure: as §1, §2
MST2 assay: MST2 (5-20 mU diluted in 50 mM Tris pH 7.5, 0.1 mM EGTA, 0.1% b-mercaptoethanol, 100 μM Vanadate) was assayed against MBP in a final volume of 25.5 μl containing 50 mM Tris pH 7.5, 0.05% b-mercaptoethanol, 0.33 mg/ml MBP, 10 mM magnesium acetate and 0.02 mM [33P-g-ATP] (50-1000 cpm/pmole) and incubated for 30 min at room temperature. Assays were stopped by addition of 5 μl of 0.5 M (3%) orthophosphoric acid and then harvested onto P81 Unifilter plates with a wash buffer of 50 mM orthophosphoric acid.

CDK4 = CDK4 (Homo sapiens, UniProt P11802); test: CDK4 in vitro kinase inhibition (protocol similar to Example 14); conditions: for remaining activity at 0.1 µM: 100 nM, mean of three (standard deviation), read-out: CDK4 % remaining kinase activity after incubation with 100 nM of compound; for IC50: Table 7, mean of three experiments
[1] = 10 micromolar compound, read-out: mean activity remaining (as a percentage of the original activity), PRK2
[2] = 10 micromolar compound, read-out: mean activity remaining (as a percentage of the original activity), MNK2
[3] = 10 micromolar compound, read-out: mean activity remaining (as a percentage of the original activity), MST2

| SMILES | remaining activity at 10 µM (PRK2; PRK2, 10 μM, read-out: Mean Remaining Enzyme Activity (%)) | remaining activity at 10 µM (MNK2; MNK2, 10 μM, read-out: Mean Remaining Enzyme Activity (%)) | remaining activity at 10 µM (MST2; MST2, 10 μM, read-out: Mean Remaining Enzyme Activity (%)) | remaining activity at 0.1 µM (CDK4) | IC50 (CDK4) | remaining activity at 10 µM (PRK2; [1]) | remaining activity at 10 µM (MNK2; [2]) | remaining activity at 10 µM (MST2; [3]) | mean activity remaining (as a percentage of the original activity), PRK2 (PRK2; 10 micromolar compound) | mean activity remaining (as a percentage of the original activity), MNK2 (MNK2; 10 micromolar compound) | mean activity remaining (as a percentage of the original activity), MST2 (MST2; 10 micromolar compound) |
| --- | --- | --- | --- | --- | --- | --- | --- | --- | --- | --- | --- |
| CC(C)c1cnn2c(NCc3ccccc3)cc(NCCCCCCCN)nc12 [BS-181] | 90% | 105% | 112% | – | – | – | – | – | – | – | – |
| C=C[C@H](CO)Nc1cc(NCc2ccccc2)n2ncc(C(C)C)c2n1 [ICEC0065] | – | – | – | 77% | > 1 µM | 105% | 83% | 87% | – | – | – |
| CC[C@H](CO)Nc1cc(NCc2ccccc2)n2ncc(C(C)C)c2n1 [ICEC0067] | – | – | – | 88% | > 1 µM | 96% | 84% | 89% | – | – | – |
| CC(C)c1cnn2c(NCc3ccccc3)cc(N[C@@H](CO)[C@H](O)CO)nc12 [ICEC0318, (3S)-3-(7-(Benzylamino)-3-isopropylpyrazolo[1,5-a]pyrimidin-5-ylamino)butane-1,2,4-triol] | – | – | – | 88% | > 1 µM | 106% | 136% | 86% | – | – | – |
| CC(C)c1cnn2c(NCc3ccccc3F)cc(NCCCCCN)nc12 [ICEC-0232] | – | – | – | – | – | – | – | – | 106% | 88% | 82% |
